Results published in US20180141939A1, “SOLID FORMS OF A BET INHIBITOR” (Gilead Sciences, Inc., priority 2016, published 2018).
≈ marks a conversion by molar mass, not a printed value.

How the values were obtained:
Type in all cases: physicochemical
[1] = Ionization constants (pKa); settings: multiple ionization constants; read-out: weak base pKa values
[2] = Susceptibility to oxidation in solution as a function of pH; settings: about 40° C., about 14 days
Source text: In the presence of iron (II) ions, formation of a complex with iron is observed at high pH (FIG. 90). This complex can be reversed to yield Compound I by addition of a strong acid.

physchem = assay: physchem
[3] = Chemical stability in aqueous solutions as a function of pH and temperature; settings: for degradation in aqueous solution: about 20 weeks
Experimental: (FIG. 88(a)), or about 40° C. (FIG. 88(b)) over a period of about 20 weeks.

[4] = increased degradation at higher pH

pKa [1]: 2.9
degradation in solution containing polysorbate 80 [2]: No significant degradation
degradation in solution containing radical initiator [2]: No significant degradation
degradation in solution containing hydrogen peroxide [2, 4]: loss of Compound I
degradation in solution containing iron (II) ions [2, 4]: loss of Compound I
solubility (physchem; pH 2.4, aqueous buffer): > 100000 µg/mL
solubility (physchem; pH 8, aqueous buffer): 9.2 µg/mL (≈ 21 µM)
degradation in aqueous solution ([3]; about pH 1 to about pH 11, about 25° C.): no significant degradation
degradation in aqueous solution ([3]; about pH 1 to about pH 11, about 40° C.): no significant degradation
degradation in aqueous solution ([3]; about pH 1 to about pH 11, about 60° C., exception pH 5 (small amount of aluminum complex)): no significant degradation
SMILES: Cc1noc(C)c1-c1cc(C(O)(c2ccccn2)c2ccccn2)c2nc(C3CC3)[nH]c2c1 [Compound I, (2-cyclopropyl-6-(3,5-dimethylisoxazol-4-yl)-1H-benzo[d]imidazol-4-yl)di(pyridin-2-yl)methanol]
susceptibility to acid- or base-catalyzed degradation ([3]; aqueous solutions as a function of pH and temperature): not susceptible to acid- or base-catalyzed degradation
